In patent US20180117042A1, “METHODS FOR TREATING RESPIRATORY SYNCYTIAL VIRUS INFECTION” (ALIOS BIOPHARMA, INC., priority 2016, published 2018):
Blank lines part the entries; values can stand above or below the compound they belong to.

Columns and labels:
RSV = settings: infants and young children with severe RSV LRTI; cited from earlier work
[1] = SAD/MAD study in pediatric patients hospitalized with RSV infection: plasma PK with PK modeling; format: in vivo, human
Protocol: (§1) One hundred fifty eight otherwise healthy pediatric patients hospitalized with RSV infection were recruited in a randomized, double-blind, placebo-controlled, SAD (single ascending dose) and MAD (multiple ascending dose) study. The patients were randomized into nine SAD, MAD regimens. Subjects not given the placebo were administered lumicitabine or compound (A), a prodrug of the nucleoside analog AL-8112 (otherwise referenced herein as compound (C), the triphosphate of which is a potent inhibitor of the RSV polymerase. The cohort size and dose for the first SAD cohort was prespecified. The makeup of all other cohorts was determined by an Independent Data Monitoring Committee (IDMC) that regularly reviewed data. FIG. 2 provides the single and multiple doses used in the study as well as approximate numbers of subjects dosed. Safety and PK data were collected for 7 (SAD) and 28 (MAD) days post randomization. PK was analyzed using non-linear mixed effect modeling.
Part 1 (single ascending dose): Patients received a single dose of 1 of 4 ascending doses of compound (A), (1.37 mg/kg, 4.1 mg/kg, 12 mg/kg and 25 mg/kg) or placebo. Patients received compound (A) for a 7-day consecutive period.
Part 2 (multiple ascending dosage): Patients received a loading dosage followed by nine maintenance dosages, or placebo. Patients received compound (A) for a 5-day consecutive period. The maintenance dosages were administered twice daily. In the twice daily dosage regimen, the first maintenance dosage was given 8-18 hours after the loading dosage (dosage 1).
A PK model was developed integrating adult and pediatric data to aid calculation of PK parameters and project efficacious doses. For pediatric dose and exposure projections three age cohorts were used: 1-<2 months, 2-<6 month and 6-<12 months. Apparent clearance increased with dose, creatinine clearance and body weight (using allometric principles). Maturation functions were applied for age dependent changes in Carboxylesterase 1 abundance on bioavailability and kidney function on renal elimination. […]

[2] = half-life of the triphosphate compound (B); settings: triphosphate formed inside the cell
[3] = SAD/MAD study in pediatric patients hospitalized with RSV infection: safety; format: in vivo, human; settings: infants hospitalized with RSV, interim blinded results
Protocol: as §1, with “modeling. Part 1 (single ascending dose): Patients received a single dose of 1 of 4 ascending doses of compound (A), (1.37 mg/kg, 4.1 mg/kg, 12 mg/kg and 25 mg/kg) or placebo. Patients received compound (A) for a 7-day consecutive period. Part 2 (multiple ascending dosage): Patients received a loading dosage followed by nine maintenance dosages, or placebo. Patients received compound (A) for a 5-day consecutive period. […]” for “modeling.”

[4] = system: RSV-A Memphis 37b challenge virus; test: human RSV challenge model in healthy adults, viral load in nasal washes; format: in vivo
Protocol: Healthy adults received one of the following dosing regimens or placebo over 5 days using the human RSV challenge model.
Patients were given an intranasal inoculation of RSV-A Memphis 37b challenge virus. Administration of compound (A), or a pharmaceutically acceptable salt thereof, began approximately 12 hours after confirmation of RSV infection as determined by the presence of RSV RNA in nasopharyngeal washes. The test compound was administered as an oral-liquid suspension, wherein the drug vehicle was methyl cellulose and sterile water. The placebo was the drug vehicle without the test compound. Second dosages were started 12 hours after administration of the first dosage, and the remaining second dosages were provided in approximate 12 hour intervals. Nasal washes were collected twice daily approximately 36 to 48 hours after RSV inoculation until Day 12. Viral load was detected and quantified from the aliquots of the nasal wash samples using tissue infectivity plaque assays and PCR. (See DeVincenzo, J. P., et al., Am. J. Respir. Crit. Care. Med. (2010) 182(10):1305-1314) Patients returned for two follow-up visits on Day 16 (±2 days) and Day 28 (±2 days) post-challenge inoculation.

Structure (SMILES): NC(=O)c1ncn([C@@H]2O[C@H](CO)[C@@H](O)[C@H]2O)n1 [aerosolized ribavirin, ribavirin]
clinical benefit of treatment (RSV): failed to impart any clinically significant benefits

AUC(0-t) ([1]; human, plasma, doses of 40/20 mg/kg and 60/40 mg/kg compound (A), actual concentrations with PK modeling (FIG. 3), read-out: plasma AUC0-24): 8000 to 20000 ng·h/mL
accumulation ([1]; multiple dosing): no accumulation
plasma exposures with increasing ALS-8176 doses (dose proportionality) ([1]; oral): less than dose proportional
Structure (SMILES): Nc1ccn([C@@H]2O[C@@](CO)(CCl)[C@@H](O)[C@H]2F)c(=O)n1 [compound (C)]

half-life [2]: ~17.6 h
Structure (SMILES): Nc1ccn([C@@H]2O[C@](CCl)(COP(=O)(O)OP(=O)(O)OP(=O)(O)O)[C@@H](O)[C@H]2F)c(=O)n1 [Compound (B)]

treatment discontinuation during the study ([4]; healthy adults, 5 days dosing): no patient discontinued treatment
Structure (SMILES): CC(C)C(=O)OC[C@@]1(CCl)O[C@@H](n2ccc(N)nc2=O)[C@H](F)[C@@H]1OC(=O)C(C)C [compound (A), Lumicitabine]
tolerability ([3]; multiple doses up to 60/40 mg/kg): well tolerated
tolerability ([3]; single doses up to 25 mg/kg): well tolerated
RSV viral load compared to the placebo ([4]; all regimens (750/150 mg, 750/500 mg, 375 mg), oral, 5 days, FIG. 1): marked reduction
RSV RNA ([4]; at Day 12, all treated patients): undetectable
RSV RNA ([4]; at Day 16 follow-up): undetectable
RSV RNA ([4]; at Day 28 follow-up): undetectable
laboratory abnormalities ([4]; healthy adults, 5 days dosing): no clinically significant laboratory abnormalities
reduction of plaque forming units equivalents (PFUe/mL) ([4]; patients who received 750 mg on Day 1, within the first 24 hours): multi-log reduction
